This passage reports Ki results from patent publication US10106523B2, “Amide compound” (ASTELLAS PHARMA INC., priority 2014, dated 2018).

Broadly, the Ki is the dissociation constant of the complex between target and ligand, obtained from inhibition or displacement.

The experiment addresses rat EP4 receptor (Rattus norvegicus, UniProt P43114). Kind of experiment: Evaluation test of rat EP4 receptor affinity ([3H]PGE2 binding, membrane fraction of HEK-293 cells). Details: expressed in transfected cells; host or cells: HEK-293 (ATCC CRL-1573), transient. The note with it: 0.3 nmol/L [3H]PGE2, rat EP4 cell membrane fraction, room temperature 1 hour; read-out: Ki value with respect to the rat EP4 receptor. As for the experimental part: Test Example 1: Evaluation Test of Rat EP4 Receptor Affinity
Construction of Rat EP4 Receptor Expressing Vector:
A rat EP4 receptor gene (GenBank accession No.: NM_032076.1) was transfected into an expression vector pcDNA3.1-V5-His-TOPO (Invitrogen Inc.).
Transient Expression of Rat EP4 Receptor:
The expression vector of a rat EP4 receptor was transfected into an HEK-293 cell (ATCC No.: CRL-1573). The transfection was carried out according to an appended instruction, using Lipofectoamine (registered trademark) 2000 reagent (Invitrogen Inc.). After the transfection, the cells were cultured in an α-MEM culture medium for 20 to 24 hours.
Preparation of Membrane Fraction:
The culture medium was removed by aspiration, 10 mL of cooled phosphate buffered saline (PBS) was added thereto per 15 cm dish, and the cells were scraped using a cell scraper (Sumitomo Bakelite). […]
[^3H]PGE2 and a cell membrane fraction were diluted with an assay buffer (50 mmol/L HEPES-NaOH, 10 mmol/L MgCl2, pH 7.5), and the test compound and unlabeled PGE2 (Cayman) were diluted with DMSO and the assay buffer. […] The radioactivity was measured using a TopCount (Perkin Elmer). […] The specific binding amount was determined by subtracting the non-specific binding amount from the total binding amount. The Ki value was calculated according to a standard method.

rat EP4 receptor, sequence (P43114 whole entry): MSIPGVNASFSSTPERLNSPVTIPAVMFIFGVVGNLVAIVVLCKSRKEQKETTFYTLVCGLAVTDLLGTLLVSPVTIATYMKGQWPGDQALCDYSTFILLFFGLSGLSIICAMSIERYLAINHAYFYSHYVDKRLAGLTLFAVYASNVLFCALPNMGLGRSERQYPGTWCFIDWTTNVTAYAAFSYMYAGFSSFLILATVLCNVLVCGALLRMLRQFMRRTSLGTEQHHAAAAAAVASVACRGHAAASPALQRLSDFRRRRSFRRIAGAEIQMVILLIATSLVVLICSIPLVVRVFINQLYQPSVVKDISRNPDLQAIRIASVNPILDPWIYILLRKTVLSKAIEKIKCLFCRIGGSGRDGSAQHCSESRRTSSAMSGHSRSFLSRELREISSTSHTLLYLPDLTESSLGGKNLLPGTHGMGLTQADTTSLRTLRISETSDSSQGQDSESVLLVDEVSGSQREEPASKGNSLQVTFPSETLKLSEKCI

For the molecule `Cc1cc(C(=O)N[C@@H](C)c2ccc(C(=O)O)cc2)n(Cc2ccc(Cl)cc2)n1` [Example 205 in Patent Document 1, reference compound], the Ki came out at 0.14 µM.
